Measured values reported in patent US20150344466A1 (SUMITOMO CHEMICAL COMPANY, LIMITED, priority 2013, published 2015).

Columns and labels:
Type in all cases: in vivo
Blattella germanica [1] = assay: Knockdown spray test on Blattella germanica, 2.0% w/v oil formulation (Test Example 1); conditions: topical, 0.25 h, active ingredient 2.0% w/v, 1.5 ml sprayed, within 15 minutes, read-out: knockdown rate of the test insects within 15 minutes
Method: Ten Blattella germanica (5 males and 5 females) were released in a test container (8.75 cm in diameter, 7.5 cm in height, and the bottom made of 16 mesh metallic wire) with the inner wall on which butter was applied, and the container was placed on the bottom of a test chamber (bottom: 46 cm×46 cm, height: 70 cm). From a height of 60 cm above the upper surface of the container, 1.5 ml of the test drug solution was sprayed using a spray gun (a spraying pressure of 0.42 kg/cm^2). Thirty seconds after spraying, the container was taken out from the test chamber, and after 2 minutes, 5 minutes and 15 minutes, the number of knocked-down insects was counted to obtain a knockdown rate. The knockdown rate was calculated by the following equation.
(§1) Knockdown Rate (%)=(Number of Knocked-down Insects/Number of Tested Insects)×100

Culex pipiens pallens = assay: Knockdown spray test on adult Culex pipiens pallens (Test Example 4); conditions: topical, 0.25 h, active ingredient 0.1% w/v, 0.5 ml sprayed, within 15 minutes, read-out: knockdown rate of the test insects within 15 minutes
Procedure, shortened: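 Ten adult mosquitoes in a gauze-covered cup inside a 46×46×70 cm chamber were sprayed with 0.5 ml of test solution from 30 cm at 0.4 kg/cm^2. The cup was removed at once, and knocked-down insects were counted at 2, 5 and 15 min; knockdown rate (%) = knocked-down/tested ×100.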

Plutella xylostella = assay: Foliar spray test on Plutella xylostella on cabbage (Test Example 10); conditions: 120 h, third instar larvae of Plutella xylostella on cabbage, 500 ppm spray 20 ml/cup, after five days, read-out: controlling value
Method: On the other hand, cabbage was planted in a polyethylene cup, and grown until the third-fourth true leaf was spread. The test spray solution was sprayed to the cabbage at a ratio of 20 ml/cup. After the drug solution sprayed on the cabbage was dried, 10 third instar larvae of Plutella xylostella were allowed to parasitize the cabbage. After five days, the number of Plutella xylostella was investigated, and the controlling value was calculated according to the following standard. Controlling value (%)={1−(Cb×Tai)/(Cai×Tb)}×100 In the equation, the symbols represent as follows. Cb: the number of insects in a non-treated section before treatment Cai: the number of insects in a non-treated section on observation Tb: the number of insects in a treated section before treatment Tai: the number of insects in a treated section on observation

Blattella germanica [2] = assay: Knockdown spray test on Blattella germanica, 0.1% w/v oil formulation (Test Example 2); conditions: topical, 0.25 h, active ingredient 0.1% w/v, 1.5 ml sprayed, within 15 minutes, read-out: knockdown rate of the test insects within 15 minutes
Procedure, shortened: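 Ten German cockroaches (5 males, 5 females) in a mesh-bottomed, butter-walled container were sprayed with 1.5 ml test solution from 60 cm at 0.42 kg/cm^2 inside a chamber.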

Musca domestica [3] = assay: Filter paper/sucrose bait death rate test on Musca domestica (Test Example 5); conditions: female imagoes of Musca domestica, 0.7 ml on filter paper, after 24 hours
Method: A filter paper having a diameter of 5.5 cm was spread on the bottom of a polyethylene cup having the same diameter and 0.7 ml of the test drug solution was added dropwise onto the filter paper, and 30 mg of sucrose was uniformly placed as bait.
Into the polyethylene cup, 10 female imagoes of Musca domestica were released, and the cup was sealed with a lid. After 24 hours, the life and death of Musca domestica was examined, and the death rate was calculated. The death rate was calculated by the following equation.
Death rate (%)=(Number of dead insects/Number of tested insects)×100

Musca domestica [4] = assay: Knockdown spray test on adult Musca domestica (Test Example 3); conditions: topical, 0.25 h, active ingredient 2.0% w/v, 0.5 ml sprayed, within 15 minutes, read-out: knockdown rate of the test insects within 15 minutes
Method: Ten adult Musca domestica (five males and five females) were released in a polyethylene cup (bottom diameter: 10.6 cm), and the cup was covered with a 16-mesh nylon gauze. The polyethylene cup was placed on the bottom of a test chamber (bottom: 46 cm×46 cm, height: 70 cm). From a height of 30 cm above the upper surface of the polyethylene cup, 0.5 ml of the test drug solution was sprayed using a spray gun (a spraying pressure of 0.9 kg/cm^2). Immediately after spraying, the cup was taken out from the test chamber, and after 2 minutes, 5 minutes and 15 minutes, the number of knocked-down insects was counted to obtain a knockdown rate. The knockdown rate was calculated by the following equation.
as §1

| Compound | pest or weed control at 2 % strength (Blattella germanica [1]) [%] | pest or weed control at 0.1 % strength (Culex pipiens pallens) [%] | pest or weed control at 500 ppm (Plutella xylostella) [%] | pest or weed control at 0.1 % strength (Blattella germanica [2]) [%] | pest or weed control at 500 ppm (Musca domestica [3]) [%] | pest or weed control at 2 % strength (Musca domestica [4]) [%] |
| --- | --- | --- | --- | --- | --- | --- |
| CCCc1cc(C(=O)NCC2CCOC2)no1 (centres unmarked) [(10), N-(tetrahydrofuran-3-ylmethyl)-5-propylisoxazole-3-carboxamide] | ≥ 80 | – | – | – | – | – |
| CCCCCc1cc(C(=O)NCC2CCOC2)no1 (centres unmarked) [(12), N-(tetrahydrofuran-3-ylmethyl)-5-pentylisoxazole-3-carboxamide] | ≥ 80 | ≥ 80 | – | – | – | – |
| O=C(NCC1CCOC1)c1cc(COC2CCCC2)on1 (centres unmarked) [(19), N-(tetrahydrofuran-3-ylmethyl)-5-cyclopentyloxymethylisoxazole-3-carboxamide] | ≥ 80 | – | – | – | – | – |
| O=C(NCC1CCOC1)c1cc(COc2ccccc2)on1 (centres unmarked) [(23), N-(tetrahydrofuran-3-ylmethyl)-5-phenyloxymethylisoxazole-3-carboxamide] | ≥ 80 | ≥ 80 | ≥ 90 | – | – | – |
| O=C(NCC1CCOC1)c1cc(COCCc2ccccc2)on1 (centres unmarked) [(25), N-(tetrahydrofuran-3-ylmethyl)-5-(2-phenylethyl)oxymethylisoxazole-3-carboxamide] | ≥ 80 | ≥ 80 | – | – | – | – |
| CC(OCc1cc(C(=O)NCC2CCOC2)no1)c1ccc2ccccc2c1 (centres unmarked) [(28), N-(tetrahydrofuran-3-ylmethyl)-5-[1-(2-naphthyl)ethyl]oxymethylisoxazole-3-carboxamide] | ≥ 80 | ≥ 80 | – | – | – | – |
| COCc1c(F)c(F)c(COCc2cc(C(=O)NCC3CCOC3)no2)c(F)c1F (centres unmarked) [(29), N-(tetrahydrofuran-3-ylmethyl)-5-(4-methoxymethyl-2,3,5,6-tetrafluorobenzyl)oxymethylisoxazole-3-carboxamide] | ≥ 80 | ≥ 80 | – | – | – | – |
| O=C(NCC1CCCO1)c1cc(COCc2ccccc2)on1 (centres unmarked) [(32), N-(tetrahydrofuran-2-ylmethyl)-5-benzyloxymethylisoxazole-3-carboxamide] | ≥ 80 | ≥ 80 | – | – | – | – |
| O=C(NCC1CCCOC1)c1cc(COCc2ccccc2)on1 (centres unmarked) [(37), N-(tetrahydropyran-3-ylmethyl)-5-benzyloxymethylisoxazole-3-carboxamide] | ≥ 80 | ≥ 80 | – | – | – | – |
| CCC1(CNC(=O)c2cc(COCc3ccccc3)on2)COCOC1 [(38), N-[5-ethyl-5-(1,3-dioxanylmethyl)]-5-benzyloxymethylisoxazole-3-carboxamide] | ≥ 80 | ≥ 80 | – | – | – | – |
| Cc1cccc(COCc2cc(C(=O)NCC3CCOCC3)no2)c1 [(83), N-(tetrahydropyran-4-ylmethyl)-5-(3-methylbenzyloxymethyl)isoxazole-3-carboxamide] | – | ≥ 80 | ≥ 90 | ≥ 80 | – | – |
| Cc1ccc(COCc2cc(C(=O)NCC3CCOC3)no2)cc1 (centres unmarked) [(97), N-(tetrahydrofuran-3-ylmethyl)-5-(4-methylbenzyloxymethyl)isoxazole-3-carboxamide] | – | ≥ 80 | ≥ 90 | ≥ 80 | – | – |
| Cc1ccc(COCc2cc(C(=O)NCC3CCOCC3)no2)cc1 [(98), N-(tetrahydropyran-4-ylmethyl)-5-(4-methylbenzyloxymethyl)isoxazole-3-carboxamide] | – | ≥ 80 | ≥ 90 | ≥ 80 | – | – |
| COc1ccc(COCc2cc(C(=O)NCC3CCOCC3)no2)cc1 [(100), N-(tetrahydropyran-4-ylmethyl)-5-(4-methoxybenzyloxymethyl) isoxazole-3-carboxamide] | – | ≥ 80 | ≥ 90 | ≥ 80 | ≥ 90 | – |
| CSc1ccc(COCc2cc(C(=O)NCC3CCOC3)no2)cc1 (centres unmarked) [(103), N-(tetrahydrofuran-3-ylmethyl)-5-(4-methylthiobenzyloxymethyl)isoxazole-3-carboxamide] | – | ≥ 80 | ≥ 90 | ≥ 80 | – | – |
| CSc1ccc(COCc2cc(C(=O)NCC3CCOCC3)no2)cc1 [(104), N-(tetrahydropyran-4-ylmethyl)-5-(4-methylthiobenzyloxymethyl)isoxazole-3-carboxamide] | – | ≥ 80 | ≥ 90 | ≥ 80 | – | – |
| O=C(NCC1CCOC1)c1cc(COCc2cccc(Oc3ccccc3)c2)on1 (centres unmarked) [(114), N-(tetrahydrofuran-3-ylmethyl)-5-(3-phenoxybenzyloxymethyl) isoxazole-3-carboxamide] | ≥ 80 | ≥ 80 | – | – | – | – |
| O=C(NCC1CCOC1)c1cc(COCCOc2ccccc2)on1 (centres unmarked) [(149), N-(tetrahydrofuran-3-ylmethyl)-5-(2-phenoxyethoxymethyl)isoxazole-3-carboxamide] | ≥ 80 | ≥ 80 | – | ≥ 80 | – | – |
| O=C(NCC1CCOC1)c1cc(Cc2ccc3ccccc3c2)on1 (centres unmarked) [(159), N-(tetrahydrofuran-3-ylmethyl)-5-(naphthalen-2-ylmethyl)isoxazole-3-carboxamide] | – | ≥ 80 | – | – | – | ≥ 80 |
| O=C(NCC1CCOC1)c1cc(Cc2cccc3ccccc23)on1 (centres unmarked) [(160), N-(tetrahydrofuran-3-ylmethyl)-5-(naphthalen-1-ylmethyl)isoxazole-3-carboxamide] | – | ≥ 80 | – | – | – | ≥ 80 |
| O=C(NCC1CCOC1)c1cc(COC/C=C/c2ccccc2)on1 (centres unmarked) [(242), N-(tetrahydrofuran-3-ylmethyl)-5-(3-phenyl-(E)-2-propenyloxymethyl)isoxazole-3-carboxamide] | – | ≥ 80 | – | – | – | ≥ 80 |
| Cc1c(C(=O)NCC2CCOC2)noc1Cc1cccc(F)c1 (centres unmarked) [(294), N-(tetrahydrofuran-3-ylmethyl)-4-methyl-5-(3-fluorobezyl)isoxazole-3-carboxamide] | – | ≥ 80 | ≥ 90 | ≥ 80 | ≥ 90 | – |
| O=C(NCC1CCOC1)c1cc(Cc2cccc(OC(F)(F)F)c2)on1 (centres unmarked) [(313), N-(tetrahydrofuran-3-ylmethyl)-5-(3-trifluoromethoxybenzyl) isoxazole-3-carboxamide] | – | ≥ 80 | ≥ 90 | ≥ 80 | ≥ 90 | – |
| O=C(NCC1CCOC1)c1cc(Cc2ccc(F)c(F)c2F)on1 (centres unmarked) [(324), N-(tetrahydrofuran-3-ylmethyl)-5-(2,3,4-trifluorobenzyl)isoxazole-3-carboxamide] | – | ≥ 80 | – | ≥ 80 | ≥ 90 | – |
| O=C(NCC1COC1)c1cc(COCc2ccccc2)on1 [(337), N-(oxetan-3-ylmethyl)-5-benrzyloxymethylisoxazole-3-carboxamide] | ≥ 80 | ≥ 80 | – | – | – | – |
